Results taken from US10082496B2, “Targeting emopamil binding protein (EBP) with small molecules that induce an abnormal feedback response by lowering endogenous cholesterol biosynthesis” (Board of Regents of the University of Texas System, priority 2014, dated 2018).

Key:
[1] = tested on: DLD1 tumors; test: DLD1 xenograft mouse model; type: in vivo; details: 40 mg/kg intraperitoneally twice daily for 18 days
[2] = tested on: colorectal tumors in CPC;Apc mice; test: CPC;Apc genetically engineered mouse model of colorectal tumors; details: in vivo
Protocol: These mice carry a CDX2P-NLS Cre recombinase transgene and a loxP-targeted Apc allele that deletes exon 14, leading to a frame shift at codon 580 and a truncated APC protein (Hinoi, T. et al. Mouse model of colonic adenoma-carcinoma progression based on somatic Apc inactivation. Cancer Res 67, 9721-9730 (2007)). […] Weights were measured every 15 days over the treatment period. These studies were performed according to the guidelines of the UT Southwestern Institutional Animal Care and Use Committee.

[3] = tested on: HCT116 cells; test: Dose response studies in CRC line HCT116 (wt APC); type: cell-based; details: Homo sapiens, HCT-116; read-out: IC50 towards HCT116 cells
Description: These 14 compounds then were obtained commercially and their IC50 determined by performing dose response studies with half log dilution series at 12 concentration points in two authentic CRC lines: HCT116 (wt APC) and DLD1 (truncated APC). […] These two compounds served as initial lead compounds for analog development and for additional studies.

COc1ccc(S(=O)(=O)N2CCC(N3CCC(C)CC3)CC2)cc1 [TASIN-1]
overt toxicity [1]: no overt toxicity | toxicity in xenograft and genetically engineered CRC mouse models [2]: without noticeable toxicity | IC50 [3]: > 10 µM
